Consider three compounds from ChEMBL document CHEMBL5260845, “Flavone-based arylamides as potential anticancers: Design, synthesis and in vitro cell-based/cell-free evaluations” (2020).

SMILES strings stand for the structures. Activity calls are given as the source filed them. The rule behind the calls is not given here.

One test has as its system SK-MEL-28. Kind of test: Antiproliferative activity against human SK-MEL-28 cells assessed as cell growth inhibition at 10 uM by SRB assay. The format is functional, cell-based.
For a further test, the system named is M14. Kind of test: Antiproliferative activity against human M14 cells assessed as cell growth inhibition at 10 uM by SRB assay relative to control. The class given is functional. On the technique in general: In SRB staining, fixed cells bind dye roughly in proportion to their protein.
For a further test, the system named is Malme-3M. Kind of test: Antiproliferative activity against human Malme-3M cells assessed as cell growth inhibition at 10 uM by SRB assay. The format is functional, cell-based.
A further test concerns MDA-MB-435. Kind of test: Antiproliferative activity against human MDA-MB-435 cells assessed as cell growth inhibition at 10 uM by SRB assay. The class given is functional, cell-based.
The subject of the next test is UACC-257. Kind of test: Antiproliferative activity against human UACC-257 cells assessed as cell growth inhibition at 10 uM by SRB assay relative to control. The format is functional.
For a further test, the system named is UACC-62. Kind of test: Antiproliferative activity against human UACC-62 cells assessed as cell growth inhibition at 10 uM by SRB assay relative to control. The class given is functional.
The next test has as its system SK-MEL-5. Kind of test: Antiproliferative activity against human SK-MEL-5 cells assessed as cell growth inhibition at 10 uM by SRB assay. The class given is functional, cell-based.
The next test relates to LOX IMVI. Kind of test: Antiproliferative activity against human LOX IMVI cells assessed as cell growth inhibition at 10 uM by SRB assay relative to control. The class given is functional.
The subject of the next test is SK-MEL-2. Kind of test: Antiproliferative activity against human SK-MEL-2 cells assessed as cell growth inhibition at 10 uM by SRB assay relative to control. The format is functional. Particulars: Homo sapiens, SK-MEL-2, dose 10 µM.
Another test has as its system SK-OV-3. Kind of test: Antiproliferative activity against human SK-OV-3 cells assessed as inhibition of cell growth at 10 uM by SRB assay relative to control. The format is functional.
The next test concerns OVCAR-4. Kind of test: Antiproliferative activity against human OVCAR-4 cells assessed as cell growth inhibition at 10 uM by SRB assay relative to control. The format is functional.
The subject of another test is SF-268. Kind of test: Antiproliferative activity against human SF-268 cells assessed as cell growth inhibition at 10 uM by SRB assay. The format is functional, cell-based.
Another test relates to SNB-75. Kind of test: Antiproliferative activity against human SNB-75 cells assessed as cell growth inhibition at 10 uM by SRB assay. The class given is functional, cell-based.
The next test has as its system RPMI-8226. Kind of test: Antiproliferative activity against human RPMI-8226 cells assessed as cell growth inhibition at 10 uM by SRB assay relative to control. The format is functional.
In a further test the test system is SF-539. Kind of test: Antiproliferative activity against human SF-539 cells assessed as cell growth inhibition at 10 uM by SRB assay. The format is functional, cell-based.
The next test concerns SF-295. Kind of test: Antiproliferative activity against human SF-295 cells assessed as cell growth inhibition at 10 uM by SRB assay. The class given is functional, cell-based.
Another test concerns U-251. Kind of test: Antiproliferative activity against human U-251 cells assessed as cell growth inhibition at 10 uM by SRB assay. The format is functional, cell-based.
In the next test the test system is SNB-19. Kind of test: Antiproliferative activity against human SNB-19 cells assessed as cell growth inhibition at 10 uM by SRB assay. The format is functional, cell-based.

In the case of `CN(C)/N=N/c1[nH]cnc1C(N)=O` [DACARBAZINE], the inhibition result in the test with SK-MEL-28, in the test with Malme-3M, in the test with MDA-MB-435 and with SK-MEL-5 was “inactive” throughout. The inhibition at 10 µM in the test with M14 amounted to 36.5%; in the test with UACC-257, 15%; in the test with UACC-62 it was 25.6%; with LOX IMVI, 49.3%; in the test on SK-MEL-2, 15%.

On to `CC(=O)O[C@H]1C(=O)[C@@]2(C)[C@H]([C@H](OC(=O)c3ccccc3)[C@]3(O)C[C@H](OC(=O)[C@H](O)[C@@H](NC(=O)c4ccccc4)c4ccccc4)C(C)=C1C3(C)C)[C@]1(OC(C)=O)CO[C@@H]1C[C@@H]2O` [PACLITAXEL], for which the inhibition at 10 µM amounted to 57.1% in the test with SK-OV-3 and 113% in the test on OVCAR-4.

As for `COc1cc2oc(-c3cccc(NC(=O)c4cccc(Br)c4)c3)cc(=O)c2c(O)c1OC`, the inhibition result in the test with SF-268, with SNB-75, in the test with SF-539, in the test on SF-295, in the test with U-251 and with SNB-19 was “inactive” in each case. The inhibition at 10 µM with RPMI-8226 is 82.6%.

Usually inhibition stands for the drop in the measured response relative to a control, in per cent.
